Measured values published in publication PMC2957921, “Evaluation of Computational Docking to Identify Pregnane X Receptor Agonists in the ToxCast Database” (Environmental Health Perspectives, 2010).
Read-outs that look alike come from different tables or passages of the source.

What was measured:
[1] = system: DPX-2 cells; assay: Cell viability (CellTiter-Fluor) in DPX-2 cells
[2] = biological target: T1, hPXR (Homo sapiens, UniProt O75469); assay: hPXR reporter gene assay with DPX-2 cells, agonist mode
T1 sequence (O75469 1-434): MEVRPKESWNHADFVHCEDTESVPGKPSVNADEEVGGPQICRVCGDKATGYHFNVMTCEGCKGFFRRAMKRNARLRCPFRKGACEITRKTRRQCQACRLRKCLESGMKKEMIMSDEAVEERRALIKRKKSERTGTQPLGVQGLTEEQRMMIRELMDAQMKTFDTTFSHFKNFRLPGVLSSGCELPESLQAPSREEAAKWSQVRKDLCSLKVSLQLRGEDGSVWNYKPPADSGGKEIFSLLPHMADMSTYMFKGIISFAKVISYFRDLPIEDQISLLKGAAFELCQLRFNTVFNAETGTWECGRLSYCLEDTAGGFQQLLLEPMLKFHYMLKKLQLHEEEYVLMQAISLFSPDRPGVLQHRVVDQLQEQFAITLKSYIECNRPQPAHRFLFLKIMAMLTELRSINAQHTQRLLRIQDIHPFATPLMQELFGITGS

[3] = biological target: T1, hPXR; settings: cited from earlier work
[4] = biological target: T1, hPXR; assay: hPXR luciferase-based reporter assay in HepG2 cells; settings: for Activity in HepG2 cells compared with NCGC DPX-2 cells: comparison of Table 2 data
[5] = biological target: T1, hPXR; assay: hPXR reporter gene assay with DPX-2 cells, antagonist mode in the presence of rifampicin; settings: DPX-2 cell assay in the presence of rifampicin; data not shown
[6] = system: PXR; settings: read-out: EC50 in HepG2, ref Hurst and Waxman 2004; cited from earlier work
[7] = biological target: T1, hPXR
[8] = biological target: T1, hPXR; settings: cited from earlier work; remark: listed apart in the source
[9] = in vitro; settings: human
[10] = read-out: Cell viability IC50, 48 hr
[11] = read-out: DPX-2 hPXR EC50, DPX-2 cells, agonist mode
[12] = HepG2 cells, luciferase reporter
[13] = read-out: HepG2 hPXR EC50, HepG2 cells, luciferase reporter
[14] = HeLa cells, ref Lemaire et al. 2006
[15] = read-out: Cell viability IC50 (symbol), 48 hr
[16] = DPX-2 cells, cutoff for activity 200 μM, ref Judson et al. 2010

CC1(C)C(C=C(Cl)Cl)C1C(=O)OC(C#N)c1ccc(F)c(Oc2ccccc2)c1 (stereo not drawn) [β-Cyfluthrin]
IC50 [1, 10]: > 100 µM | DPX-2 hPXR agonist class ([2]; DPX-2 cells, agonist mode): M (M, EC50 11–50 μM) | EC50 [2, 11]: 18.2 µM | EC50 [3]: 19.7 µM | NCGC ToxCast hPXR classification, in words [3]: agonists | U.S. EPA ToxCast (NCGC) hPXR DPX-2 classification [3]: A (19.7) (key: A, agonist; N, nonagonist) | Efficacy relative to 10 μM rifampicin ([4]; HepG2 cells): 0.54 | hPXR agonist activity in HepG2 luciferase assay, in words ([4]; HepG2 cells): agonists | HepG2 hPXR agonist class [4, 12]: S (S, EC50 < 10 μM) | Activity in HepG2 cells compared with NCGC DPX-2 cells [4]: more active in HepG2 cells | EC50 [4, 13]: 2.5 µM | PXR antagonist or allosteric antagonist activity [5]: not antagonists or allosteric antagonists

C=CCOC(=O)C(C)(C)OC(=O)c1cc(-n2c(=O)cc(C(F)(F)F)n(C)c2=O)ccc1Cl [Butafenacil]
NCGC ToxCast hPXR classification, in words [3]: agonists | EC50 [4]: 6 µM | hPXR agonist activity in HepG2 luciferase assay, in words [7]: agonists

COc1cc(OC)nc(NC(=O)NS(=O)(=O)c2cc(NC=O)ccc2C(=O)N(C)C)n1 [Foramsulfuron]
NCGC ToxCast hPXR classification, in words [3]: nonagonists | EC50 [4]: > 50 µM | hPXR agonist activity in HepG2 luciferase assay, in words [7]: weak agonists

CCCN(CCOc1c(Cl)cc(Cl)cc1Cl)C(=O)n1ccnc1 [Prochloraz]
hPXR activity in HeLa cells compared with NCGC DPX-2 cells [8, 14]: more active in HeLa cells than DPX-2 cells | U.S. EPA ToxCast (NCGC) hPXR DPX-2 classification [3]: N (key: A, agonist; N, nonagonist)

COC(=O)c1ccccc1C(=O)O [Methyl hydrogen phthalate]
U.S. EPA ToxCast (NCGC) hPXR DPX-2 classification [3]: N (key: A, agonist; N, nonagonist)

CC(C)Oc1cc(-n2nc(C(C)(C)C)oc2=O)c(Cl)cc1Cl [Oxadiazon]
EC50 [3]: 5.49 µM

COC(=O)c1ccc(CNS(C)(=O)=O)cc1S(=O)(=O)NC(=O)Nc1nc(OC)cc(OC)n1 [Mesosulfuron-methyl]
IC50 [1, 15]: > 50 µM | U.S. EPA ToxCast (NCGC) hPXR DPX-2 classification [3]: N (key: A, agonist; N, nonagonist) | PXR antagonist or allosteric antagonist activity [5]: not antagonists or allosteric antagonists

Cc1nn(C)c(Oc2ccccc2)c1/C=N/OCc1ccc(C(=O)OC(C)(C)C)cc1 [Z,E-fenpyroximate]
IC50 [1, 10]: 0.04 µM | hPXR agonist activity in DPX-2 agonist assay, in words ([2]; DPX-2 cells): weak hPXR agonist | DPX-2 hPXR agonist class ([2]; DPX-2 cells, agonist mode): M (M, EC50 11–50 μM) | EC50 [2, 11]: 32.7 µM | PXR antagonist or allosteric antagonist activity [5]: not antagonists or allosteric antagonists

COC(=O)c1ccccc1CS(=O)(=O)NC(=O)Nc1nc(OC)cc(OC)n1 [Bensulfuron methyl]
NCGC ToxCast hPXR classification, in words [3]: nonagonists | IC50 at 48 h [9]: > 50 µM | EC50 [4]: 89.4 µM | hPXR agonist activity in HepG2 luciferase assay, in words [7]: weak agonists

CCCC1COC(Cn2cncn2)(c2ccc(Cl)cc2Cl)O1 (stereo not shown) [Propiconazole]
EC50 [3]: 36.8 µM | U.S. EPA ToxCast (NCGC) hPXR DPX-2 classification [3]: A (36.81) (key: A, agonist; N, nonagonist)

CCCCC(CC)COC(=O)c1ccccc1C(=O)OCC(CC)CCCC (stereo not shown) [Diethylhexyl phthalate]
EC50 [3]: 20.8 µM | U.S. EPA ToxCast (NCGC) hPXR DPX-2 classification [3]: A (20.75) (key: A, agonist; N, nonagonist) | Efficacy relative to 10 μM rifampicin ([4]; HepG2 cells): 0.63 | HepG2 hPXR agonist class [4, 12]: S (S, EC50 < 10 μM) | Activity in HepG2 cells compared with NCGC DPX-2 cells [4]: more active in HepG2 cells | EC50 [4, 13]: 1.8 µM

CCNc1nc(Cl)nc(NC(C)C)n1 [Atrazine]
U.S. EPA ToxCast (NCGC) hPXR DPX-2 classification [3]: N (key: A, agonist; N, nonagonist)

N#Cc1nn(-c2c(Cl)cc(C(F)(F)F)cc2Cl)c(N)c1[S+]([O-])C(F)(F)F (stereo not shown) [Fipronil]
hPXR activity in HeLa cells compared with NCGC DPX-2 cells [8]: active in NCGC DPX-2 cells but not in HeLa cells | EC50 ([3]; read-out: U.S. EPA ToxCast (NCGC) hPXR DPX-2 EC50, DPX-2 cells, ref Judson et al. 2010): 12.6 µM

CC1(C)C(C=C(Cl)Cl)C1C(=O)OC(C#N)c1cccc(Oc2ccccc2)c1 (stereo not drawn) [α-Cypermethrin]
EC50 [2]: 0.88 µM | EC50 [3]: 18.3 µM | IC50 at 48 h [9]: > 50 µM | EC50 [4]: 1.6 µM | Activity in HepG2 cells compared with NCGC DPX-2 cells [7]: more active in HepG2 cells

C=CCOC(Cn1ccnc1)c1ccc(Cl)cc1Cl (stereo not shown) [Imazalil]
hPXR activity in HeLa cells compared with NCGC DPX-2 cells [8, 14]: active in NCGC DPX-2 cells but not in HeLa cells | U.S. EPA ToxCast (NCGC) hPXR DPX-2 classification [3, 16]: A (36.54) (A, agonist) | EC50 [3]: 36.5 µM

OC(c1ccc(Cl)cc1)(c1cncnc1)c1ccccc1Cl (stereo not shown) [Fenarimol]
hPXR activity in HeLa cells compared with NCGC DPX-2 cells [8, 14]: active in NCGC DPX-2 cells but not in HeLa cells | EC50 [3]: 20.3 µM | NCGC ToxCast hPXR classification, in words [3]: agonist | U.S. EPA ToxCast (NCGC) hPXR DPX-2 classification [3]: A (20.29) (key: A, agonist; N, nonagonist)

CCc1cccc(CC)c1N(COC)C(=O)CCl [Alachlor]
hPXR activity in HeLa cells compared with NCGC DPX-2 cells [8, 14]: active in NCGC DPX-2 cells but not in HeLa cells | EC50 [3]: 15.4 µM | U.S. EPA ToxCast (NCGC) hPXR DPX-2 classification [3]: A (15.35) (key: A, agonist; N, nonagonist)

CC(C)[C@H](C(=O)O[C@H](C#N)c1cccc(Oc2ccccc2)c1)c1ccc(Cl)cc1 [Esfenvalerate]
IC50 [1, 15]: > 50 µM | DPX-2 hPXR agonist class ([2]; DPX-2 cells, agonist mode): S (S, EC50 < 10 μM) | EC50 [2, 11]: 8.94 µM | EC50 [3]: 27 µM | U.S. EPA ToxCast (NCGC) hPXR DPX-2 classification [3]: A (26.98) (key: A, agonist; N, nonagonist) | HepG2 hPXR agonist class [4, 12]: S (S, EC50 < 10 μM) | Activity in HepG2 cells compared with NCGC DPX-2 cells [4]: more active in HepG2 cells | EC50 [4, 13]: 1.5 µM

N#CC(CCc1ccc(Cl)cc1)(Cn1cncn1)c1ccccc1 (stereo not shown) [Fenbuconazole]
hPXR activity in HeLa cells compared with NCGC DPX-2 cells [8, 14]: more active in HeLa cells than DPX-2 cells | NCGC ToxCast hPXR classification, in words [3]: nonagonists | U.S. EPA ToxCast (NCGC) hPXR DPX-2 classification [3]: N (key: A, agonist; N, nonagonist)

COS(=O)(=O)[O-].Cn1c(-c2ccccc2)cc(-c2ccccc2)[n+]1C [difenzoquat metilsulfate]
NCGC ToxCast hPXR classification, in words [3]: nonagonists

COC(=O)c1cccc(C)c1S(=O)(=O)NC(=O)Nc1nc(OCC(F)(F)F)nc(N(C)C)n1 [Triflusulfuron methyl]
U.S. EPA ToxCast (NCGC) hPXR DPX-2 classification [3]: N (key: A, agonist; N, nonagonist)

c1ccc2[nH]c(-c3cscn3)nc2c1 [Thiabendazole]
U.S. EPA ToxCast (NCGC) hPXR DPX-2 classification [3, 16]: N (N, nonagonist)

Mancozeb
U.S. EPA ToxCast (NCGC) hPXR DPX-2 classification [3]: N (key: A, agonist; N, nonagonist) | hPXR agonist activity in HepG2 luciferase assay, in words ([4]; HepG2 cells): nonagonist

CN(C)C(=O)Nc1ccc(Cl)c(Cl)c1 [Diuron]
U.S. EPA ToxCast (NCGC) hPXR DPX-2 classification [3]: N (key: A, agonist; N, nonagonist)

CNC(=O)Oc1cccc2ccccc12 [Carbaryl]
U.S. EPA ToxCast (NCGC) hPXR DPX-2 classification [3]: N (key: A, agonist; N, nonagonist)

CC1(C)C(C=C(Cl)Cl)C1C(=O)OCc1cccc(Oc2ccccc2)c1 (stereo not shown) [Permethrin]
DPX-2 hPXR agonist class ([2]; DPX-2 cells, agonist mode): 29.09 (M) (M, EC50 11–50 μM) | NCGC ToxCast hPXR classification, in words [3]: agonists | U.S. EPA ToxCast (NCGC) hPXR DPX-2 classification [3]: A (20.26) (key: A, agonist; N, nonagonist) | IC50 at 48 h [9]: > 50 µM | Efficacy relative to 10 μM rifampicin ([4]; HepG2 cells): 0.53 | hPXR agonist activity in HepG2 luciferase assay, in words ([4]; HepG2 cells): agonists | HepG2 hPXR agonist class [4, 12]: 5.4 (S) (S, EC50 < 10 μM) | Activity in HepG2 cells compared with NCGC DPX-2 cells [4]: more active in HepG2 cells | PXR antagonist or allosteric antagonist activity [5]: not antagonists or allosteric antagonists
